Consider one molecule from publication PMC10870435, “A novel complement C3 inhibitor CP40-KK protects against experimental pulmonary arterial hypertension via an inflammasome NLRP3 associated pathway” (Journal of Translational Medicine, 2024).

Bridge positions count the residues as written; N and C are the ends. Square brackets hold non-standard residues; d marks the D form. Peptide text beside a SMILES is read from it. Trp(1-Me) = Cn1cc(C[C@H](N)C(=O)O)c2ccccc21; NMeI = CC[C@H](C)[C@H](NC)C(=O)O; Sar = CNCC(=O)O

Data set [1] deals with rat complement C3 function. The experiment in a line: CH50 test ex vivo, plasma of PAH experiment groups. Type of data set: in vivo. Conditions: 2 mg/kg s.c. day 15 to day 28. The procedure: In the current study, two animal experiments were conducted successively. 30 rats were randomly divided into two groups (control group and MCT group, n = 15 per group) in the first experiment. MCT group rats received a single intraperitoneally injection of MCT (40 mg/kg) on day 1 to induce PAH while control group rats received an equivoluminal saline injection intraperitoneally. For the second animal experiment, the rats were assigned into four groups (control group, MCT group, CP40-KK group, and MCT + CP40-KK group, n = 15 per group). […]
The total functional complement was determined with a CH50 assay based on the modified method of Mayer. […] The OD values of supernatant liquid in the ten tubes were measured at 541 nm and compared with that of the 50% haemolytic standard tube to get the most similar value. The total haemolytic complement (CH50) = dilution ratio / the quantity of plasma needed to induce 50% lysis of sheep erythrocytes.
Plasma samples for biological assays from rats were centrifuged and stored at -80°C until used, and the total functional complement was determined with a CH50 assay based on the modified method of Mayer. This assay involves determining the quantity of plasma needed to induce 50% lysis of sheep erythrocytes sensitized with antibody anti-sheep erythrocytes. […]

Data set [2] relates to MCT-induced rat PAH model. Nature of the data set: MCT-induced rat PAH model: hemodynamics, RV hypertrophy, vessel morphology. Format: in vivo. As for the experimental part:
(§1) In the current study, two animal experiments were conducted successively. 30 rats were randomly divided into two groups (control group and MCT group, n = 15 per group) in the first experiment. MCT group rats received a single intraperitoneally injection of MCT (40 mg/kg) on day 1 to induce PAH while control group rats received an equivoluminal saline injection intraperitoneally. For the second animal experiment, the rats were assigned into four groups (control group, MCT group, CP40-KK group, and MCT + CP40-KK group, n = 15 per group). The control group was given the same volume of saline subcutaneously while the CP40-KK group rats only received CP40-KK (2 mg/kg) by subcutaneous injection from day 15 to day 28 continuously. The rats in the MCT group and MCT + CP40-KK group were received a single intraperitoneally injection of MCT (40 mg/kg) on day 1 and subcutaneously injected with either an equal volume of saline or CP40-KK (2 mg/kg) at day 15 to day 28 continuously. The dose selection of MCT and CP40-KK in our study was established based on previous studies.
Four weeks after the MCT injection, the experimental rats were weighed and anesthetized by intraperitoneal injecting pentobarbital sodium (40 mg/kg). After being anesthetized, rats were fixed in the supine position. A 3F polyethylene catheter filling with heparin was introduced into the right ventricle (RV) through the right jugular vein and the right atrium. Right ventricle systolic pressure (RVSP) was assessed by a pressure transducer and PowerLab system (AD Instruments, Australia). Pressure recordings were measured over a 2 min period and analyzed with Powerlab Pro Software (AD Instruments, Australia). After the hemodynamic study, the rats were euthanized by an overdose of anesthesia, and their lungs and hearts were dissected for further evaluation. The dry weights of the RV and left ventricle (LV) + septum were measured to calculate the RV/(LV + S) ratio and the RV / body weight (RV/BW). The left lung was fixed in 4% paraformaldehyde, and the right lung was snap-frozen in liquid nitrogen and stored at − 80 °C for further analysis.
Fixed lung samples were further fixed in 4% buffered paraformaldehyde for 24 h, embedded in paraffin, and processed for sectioning at 5 μm thick. Hematoxylin and eosin (H&E) staining were performed on paraffin-fixed lung tissue slides. The percent medial wall thickness (WT%) and percent medial wall area (WA%) were used to assess the extent of pulmonary vascular remodeling. WT% = (external diameter − internal diameter)/(external diameter) × 100%; WA% = (external area − internal area)/external area × 100%. All data were obtained and analyzed in a blinded manner.

A further data set relates to NLRP3 inflammasome. Nature of the data set: Lung homogenate western blot of NF-κB p65 / NLRP3 inflammasome pathway in PAH rats. Type of data set: in vivo, rat. Conditions: lung homogenates, MCT + CP40-KK vs MCT, n = 6 per group. The procedure: as §1
Proteins were collected from the fresh frozen-rat lung tissues using RIPA lysis buffer. Protein concentration was quantified using a BCA reagent. Equal amounts of protein were electrophoretically separated on 10% SDS polyacrylamide gel, transferred to PVDF membranes, and probed with desired primary antibodies overnight at 4 °C. Membranes were then washed with TBST and incubated with anti-mouse IgG (1:5000) or anti-rabbit IgG (1:5000) horseradish peroxidase conjugated antibodies as indicated. […] To compare and quantify levels of proteins, the density of each band was measured using Image J software. Equal loading for total cell or tissue lysates was determined by β-Actin western blot.
Proteins were collected from the fresh frozen-rat lung tissues using RIPA lysis buffer. Protein concentration was quantified using a BCA reagent. […] To compare and quantify levels of proteins, the density of each band was measured using Image J software. Equal loading for total cell or tissue lysates was determined by β-Actin western blot^3,4.

[3] abbreviates: MCT 40 mg/kg i.p. day 1, 2 mg/kg/day s.c. day 15-28, vs MCT group, n = 6 per group.

Turning to `CC[C@H](C)[C@H](NC(=O)[C@H](N)Cc1ccc(O)cc1)C(=O)N[C@H]1CSSC[C@@H](C(=O)N(C)[C@H](C(=O)N[C@@H](CCCCN)C(=O)N[C@@H](CCCCN)C(N)=O)[C@@H](C)CC)NC(=O)[C@H](CCCNC(=N)N)NC(=O)[C@H](Cc2c[nH]cn2)NC(=O)CN(C)C(=O)[C@H](Cc2c[nH]c3ccccc23)NC(=O)[C@H](CC(=O)O)NC(=O)[C@H](CCC(N)=O)NC(=O)[C@H](Cc2cn(C)c3ccccc23)NC(=O)[C@H](C(C)C)NC1=O` [CP40-KK] (H-[dY]ICV[Trp(1-Me)]QDW[Sar]HRC[NMeI]KK-NH2; disulfide 3-12 (inferred)), the “CH50 value ex vivo, MCT + CP40-KK vs MCT group” value in data set [1] is “could reverse it”. Moreover, in data set [2] (setting [3]), the “RV / (LV + S) ratio” value is “significantly ameliorate”, the “RV / BW ratio” value is given as “significantly ameliorate”, the RVSP entry is on record as “significantly ameliorate” and the “pulmonary wall thickness index WA%” value is “significantly ameliorate”. Besides, the “pulmonary wall thickness index WT%” value in data set [2] (setting [3]) was “significantly ameliorate”. The “PAH-related indices, CP40-KK only group vs saline only group” value in data set [2] (rats without MCT, 2 mg/kg s.c. day 15-28) is “no significant effect”. Further, in the data set with NLRP3 inflammasome, the “NF-κB subunit p65 phosphorylation” value is “significantly block”; the NLRP3 inflammasome activation result is recorded as “significantly block”; the “production of proinflammatory cytokines IL-1β and IL-18” value is on record as “reduced”.
